{"source": "patent US4263323A", "about": "“β-Receptor blocking compounds and treatment of cardiovascular disorders therewith” (priority 1979, dated 1981)", "key": {"[1]": {"target": "T1, cardiac β-receptors (Felis catus, UniProt Q9TST6)", "T1 construct": "from tissue; host or cells: heart of the living, reserpinized, anesthetized cat (in vivo heart rate)", "T1 sequence (Q9TST6 whole entry)": "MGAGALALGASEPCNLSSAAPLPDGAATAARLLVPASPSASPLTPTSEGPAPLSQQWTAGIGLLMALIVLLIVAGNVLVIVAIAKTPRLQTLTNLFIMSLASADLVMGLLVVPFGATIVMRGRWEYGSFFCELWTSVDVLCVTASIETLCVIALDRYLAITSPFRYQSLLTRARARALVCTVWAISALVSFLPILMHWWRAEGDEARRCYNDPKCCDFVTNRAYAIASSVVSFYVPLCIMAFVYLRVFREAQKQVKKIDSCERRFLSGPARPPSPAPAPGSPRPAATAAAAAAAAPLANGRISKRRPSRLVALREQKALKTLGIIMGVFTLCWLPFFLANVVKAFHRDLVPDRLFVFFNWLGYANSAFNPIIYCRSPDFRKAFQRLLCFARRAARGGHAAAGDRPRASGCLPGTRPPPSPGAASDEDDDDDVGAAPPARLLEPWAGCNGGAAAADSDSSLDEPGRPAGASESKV", "experiment": "β-blockade of isoprenaline heart rate response, reserpinized anesthetized cat", "type": "in vivo", "details": "iv, 0.012-51.2 μmol/kg, isoproterenol 0.1 μg/kg i.v.", "procedure": "The new compounds have valuable pharmacological properties. Thus they block cardiac β-receptors, which is shown at the determination of the antagonism of tachycardia after an intravenous injection of 0.1 ug/kg of 1-isoproterenol sulphate on an anaesthetized cat at an intravenous dose of 0.012-51.2 umol/kg. The compounds are heart selective with regard to their β-blocking activity.\nThe agents of the present invention were tested as regards their biological properties. All compounds were thereby tested in anesthetized cats (males and females weighing 2.5-3.5 kg) pretreated with reserpine (5 mg/kg bodyweight administered intramuscularly) about 16 hours before the experiments. The animals were pretreated with reserpine in order to eliminate the endogenous sympathetic control of heart rate and vascular smooth muscle tone. The cats were anesthetized with pentobarbital (30 mg/kg bodyweight administered i.p.) and artificially ventilated with room air. A bilateral vagotomy was performed in the neck. […] Vascular resistance in one hind leg was recorded by an autoperfusion technique. […] Blockade of the heart rate and vascular resistance response to isoproterenol was calculated for each dose and expressed as percent decrease of the response obtained when isoproterenol was injected before any dose of the test compound. […]"}, "[2]": {"system": "heart rate", "experiment": "Intrinsic beta mimetic activity on the heart, reserpinized cat", "type": "in vivo", "procedure": "(§1) The agents of the present invention were tested as regards their biological properties. All compounds were thereby tested in anesthetized cats (males and females weighing 2.5-3.5 kg) pretreated with reserpine (5 mg/kg bodyweight administered intramuscularly) about 16 hours before the experiments. The animals were pretreated with reserpine in order to eliminate the endogenous sympathetic control of heart rate and vascular smooth muscle tone. The cats were anesthetized with pentobarbital (30 mg/kg bodyweight administered i.p.) and artificially ventilated with room air. A bilateral vagotomy was performed in the neck. Blood pressure was obtained from a cannulated carotid artery and heart rate was registered from a cardiotachometer, triggered by the electrocardiogram (ECG). Vascular resistance in one hind leg was recorded by an autoperfusion technique. Intrinsic beta mimetic activity on the heart was seen as increased heart rate after drug administration. The test compounds were given intravenously in logarithmically increasing doses. […] Blockade of the heart rate and vascular resistance response to isoproterenol was calculated for each dose and expressed as percent decrease of the response obtained when isoproterenol was injected before any dose of the test compound. […]"}, "[3]": {"target": "T2, α-receptors (Rattus norvegicus, UniProt P43140)", "T2 construct": "from tissue; host or cells: isolated rat vas deferens", "T2 sequence (P43140 1-466)": "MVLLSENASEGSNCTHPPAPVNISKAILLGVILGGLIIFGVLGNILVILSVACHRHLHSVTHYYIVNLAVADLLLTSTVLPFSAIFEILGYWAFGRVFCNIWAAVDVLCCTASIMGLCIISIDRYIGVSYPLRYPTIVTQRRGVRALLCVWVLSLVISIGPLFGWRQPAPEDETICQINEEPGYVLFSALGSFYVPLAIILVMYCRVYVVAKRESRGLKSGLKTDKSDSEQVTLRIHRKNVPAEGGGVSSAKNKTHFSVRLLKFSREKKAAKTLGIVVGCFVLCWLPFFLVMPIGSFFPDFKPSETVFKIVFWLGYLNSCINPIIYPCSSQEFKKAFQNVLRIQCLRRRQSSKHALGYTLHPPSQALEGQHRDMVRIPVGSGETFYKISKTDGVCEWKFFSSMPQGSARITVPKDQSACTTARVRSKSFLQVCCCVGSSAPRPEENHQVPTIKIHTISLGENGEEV", "experiment": "α-receptor blocking activity in isolated rat vas deferens (noradrenaline contraction)", "details": "read-out: pA2 (α-receptor blocking activity) (converted)", "procedure": "α-receptor blocking activity was tested in isolated rat vas deferens. Noradrenaline administered to the organ bath induces a contraction in vas deferens by activating α-receptors. The ability of the test compounds to inhibit this noradrenaline response was studied. The α-receptor blocking activity was expressed as pA2 values. pA2 is defined as the negative logarithm of the concentration of an antagonist (in our case the test compounds) which leads to the fact that the dose of the agonist (in our case noradrenaline) has to be doubled in order to obtain the same effect of the agonist as that obtained without the antagonist present. Thus a high pA2 value indicates a high α-receptor blocking activity of a compound."}, "[4]": {"target": "T3, β-receptors (vascular resistance in one hind leg) (Felis catus, UniProt Q9TST5)", "T3 construct": "from tissue; host or cells: hind-leg vasculature of the living, reserpinized, anesthetized cat (in vivo)", "T3 sequence (Q9TST5 whole entry)": "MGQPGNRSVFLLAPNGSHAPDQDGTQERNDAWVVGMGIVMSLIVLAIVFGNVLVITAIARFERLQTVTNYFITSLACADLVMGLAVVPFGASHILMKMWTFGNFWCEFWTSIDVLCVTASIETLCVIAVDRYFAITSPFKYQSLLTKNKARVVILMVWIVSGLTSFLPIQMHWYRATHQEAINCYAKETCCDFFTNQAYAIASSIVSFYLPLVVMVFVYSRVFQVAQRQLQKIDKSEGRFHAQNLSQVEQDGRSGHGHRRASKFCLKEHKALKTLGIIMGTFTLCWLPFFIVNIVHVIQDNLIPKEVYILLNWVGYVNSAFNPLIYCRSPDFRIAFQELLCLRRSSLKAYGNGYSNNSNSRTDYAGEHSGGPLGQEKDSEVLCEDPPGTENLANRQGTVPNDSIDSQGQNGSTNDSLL", "experiment": "β-blockade of isoprenaline peripheral resistance response (hind leg), reserpinized anesthetized cat", "type": "in vivo", "details": "iv, 0.012-51.2 μmol/kg, isoproterenol 0.1 μg/kg i.v.", "procedure": "as §1"}}}
{"smiles": "COCCNC(=O)COc1ccccc1OCC(O)CNCCOc1ccc(O)cc1", "note": "(centres unmarked) [3-[2-(4-hydroxyphenoxy)ethylamino]-1-o-methoxyethylaminocarbonylmethoxyphenoxy-propanol-2]", "values": [{"measurement": "ED50", "setting": "[1]", "result": 0.05, "unit": "µmol/kg"}, {"measurement": "Emax", "setting": "[2]; Felis catus, iv, % of isoprenaline", "result": 0, "unit": "%"}, {"measurement": "Intrinsic activity Δbeats/min.", "setting": "[2]; i.v.", "result": 0, "unit": "beats/min"}, {"measurement": "Kb", "setting": "[3]", "result": 3.16, "unit": "µM"}, {"measurement": "ED50", "setting": "[4]", "result": 1.8, "unit": "µmol/kg"}]}
